Test results taken from EP1370276B1, “INTERCELLULAR COMMUNICATION FACILITATING COMPOUNDS AND THEIR MEDICAL USE” (Zealand Pharma A/S, priority 2001, dated 2002).
[ ]: non-standard residue; d: D form. Hyp = O=C(O)[C@@H]1C[C@@H](O)CN1

Experiments:
CHO cells = assay: In situ binding of [125I]AAP10 on intact CHO cells; details: overnight at 4° C
Procedure: CHO cells are seeded in 24-multi well dishes in a density of 7,900 cells/cm^2 (∼ 15,000 cells/well) and grown for 3 Days In Vitro (DIV) in 1 ml/well of F-12K Nutrient Mixture supplemented with 10% Foetal Calf Serum (FCS) and 1000 units penicillin/1000 µg streptomycin (pen/strep) in an atmosphere of 5% CO2 and 100% humidity at 37° C. The cell density has at that time increased to 295,000 cells/cm^2 (152 pgprot/cell ∼ 85 µgprot/well).
On the day of analysis cells are removed from the incubator and each well is washed twice with, depending on the experiment, either 2 ml pre-warmed (37 °C) or ice-cold (0 °C) D-PBS to remove serum. It is important to keep the period to a minimum during which cells are left without physiological solutions to avoid that they dry out during washing procedures. The cold washed cells are used directly for binding assays while the warm washed cells are used for experiments with glucose and oxygen deprivation.
The in situ binding is performed by a modified protocol based on the description by Koenig. […] Cells incubate overnight at 4° C to reach equilibrium. Each well, one at the time, is then rinsed rapidly with 2 x 1 ml D-PBS and left to dry.
0.25 ml of 0.5 % Triton-X-100 (v/v) is added to each well and cells left for at least 1 h to solubilize. The extract is transferred to counting vials, the wells rinsed with 0.25 ml water and the rinse extract added to the corresponding vials. The vials are counted in a γ-counter. Table 3. In situ binding, IC50 (nM).

[1] = target: murine heart tissue preparations; assay: Displacement of [125I]AAP10 from murine heart tissue preparations; assay type: binding, mice; details: displacement of 0.8 nM [125I]AAP10, filtrate; read-out: Filtrate IC50
Procedure: Hearts are excised from mice (Balb/cJ, 20 g), rinsed twice in ice-cold (0°C) 0.32 M sucrose and homogenized on ice in 10 volumes of sucrose with an Ultra Turrax homogeniser (1000 rpm) for 2 minutes. The homogenate is centrifuged at 1000 gmea" for 10 minutes at 4° C and the supernatant collected and filtrated through 4 layers of gauze. The filtrate is then centrifuged at 50,000 gmean for 45 min at 4° C and the pellet resuspended in 10 volorg. wet weight ice-cold distilled water and incubated for 60 min at 0° C and re-centrifuged at 50,000 gmean at 45 min at 4° C. The resulting pellet is resuspended in 2 vol org. wet weight of PBS (Phosphate Buffered Saline) and stored at - 80° C until use.

[2] = system: cAMP formation in CHO cells; assay: Inhibition of forskoline stimulated cAMP formation in CHO cells; assay type: cell-based; details: 10 µM forskoline, 20 min, cells pre-treated with glucose and oxygen deprivation
Procedure: CHO cells are seeded in 96-well microtiter plates in a density of 6,000 cells/cm^2 (∼ 2,000 cells/well) and grown for 4 days in vitro in 200 µl/well of growth media as described in the previous section.
On the day of analysis cells are removed from the incubator and washed twice with 200 µl pre-warmed (37°C) D-PBS (pH 7.2) to remove serum. Cells are incubated for 10 min in glucose free D-PBS and an N2-atmosphere as described in the previous section.
CHO cells are incubated at 37° C in D-PBS (pH 7.2) containing 6 mM glucose, 2.0 mM IBMX (phospodiesterase blocker), 10 µM forskoline (stimulates cAMP formation) and increasing concentrations of test peptide. The reaction is stopped after 20 min by addition of 20 µl 0.5 M HCl and left for at least 20 min at room temperature.
The content of cAMP is analysed by mixing 20 µl of the acid cell extract into FlashPlate™ wells (NEN assay kit SMP001) containing 180 µl [^12SI]cAMP tracer solution. FlashPlates™ are incubated overnight at 4° C and plate bound radioactivity counted in TopCount (Packard Instrument). Data are calculated as described in the previous section.

[3] = system: isolated perfused rabbit hearts; assay: Isolated perfused rabbit heart (Langendorff), APD90 dispersion during hypokalemic ischemia; details: 10^-10 mol/l
[4] = system: calcium-induced arrythmias; assay: Calcium-induced arrhythmia model in mice (time to 2nd degree AV-block); assay type: in vivo; details: for CaCl2 mice Score / CaCl2 mice In vivo, %: calcium chloride induced arrythmia model; for CaCl2 mice Score: no key for the score
Procedure: The antiarrhythmic effects of compounds of this invention were tested in an in vivo model of calcium-induced arrythmias according to the model of Lynch et al. ^[37]. […]. Commercial solutions of hypnorm and midazolam were diluted 1:1 in distilled water and one part diluted Hypnorm® is mixed with one part diluted midazolam.
The anaesthesia was induced by s.c. administration in a dose of […]. An i.v. cannula was inserted into the tail vein. The lead II ECG signal was recorded continuously by positioning of a stainless steel ECG electrodes on the right forelimb and on the left hind limb. The ground electrode was placed on the right hind limb. The signal was amplified (x 5.000-10.000) and filtered (0.1-150 Hz) via a Hugo Sachs Electronic model 689 ECG module. The analogue signal was digitised via a 12 bit data acquisition board (Data Translation model DT321) and sampled at 1000 Hz using the Notocord HEM 3.1 software for Windows NT. After a 10-min equilibration period, the test sample of drug was injected into the tail vein. Mice pre-treated with vehicle were tested as a measure of the control level in untreated animals. The injection volume was 100 µl in all experiments. Infusion of CaCl2 (30 mg/ml, 0.1 ml/min ≈ 100 mg/kg/min (calciumchlorid-2-hydrat, Riedel-de Haën, Germany)) was started 3 min after i.v. administration of drug or vehicle. The time lag to onset of 2nd degree AV-block was determined as the time from the start of CaCl2 infusion until the first arrhythmic event occured. An event of 2nd degree AV-block was defined as intermittent failure of the AV conduction characterised by a P-wave without the concomitant QRS complex.
Responses were expressed relative to the time until 2nd degree AV-block occurred in vehicle treated mice.

[5] = system: phosphoinositol turnover in rat primary cardiomyocytes; assay: Phosphoinositol turnover in primary cardiomyocyte cultures; assay type: cell-based; details: for EC50: enhancement of phospho-inositol turnover
Procedure: Neonatal Wistar rats (1-2 days old) are used. Hank's calcium- and magnesium-free balanced salt solution, buffered with 10 mM HEPES is used for washing during cell separation procedures. The hearts are excised, the ventricles isolated and the tissue cut into small pieces. The myocardial cells are isolated by stepwise enzymatic degradation with collagenase 0.05%, as described by ^[35]. After repeated rounds of centrifugation and washing, the precipitated cells are resuspended in culture medium M199 with Earle's salt, 10% NCS, penicillin (75 U/mL), and streptomycin (75 U/mL) and pre-plated in a Petri dish for 90 minutes. The non-adherent cells are collected in the culture medium and plated in multidishes at 2.5*10^5 cells/well. The cultures are kept in a water-saturated CO2-incubator at 37°C. The cardiomyocyte cultures are used for analyses after 6-7 days.
Cardiomyocyte cultures are incubated for 48 hours in culture medium containing 4 µCi/mL myo-[2-^3H]inositol to label the inositol phospholipids. On the day of analysis the medium is replaced by a buffer solution containing lithium and incubated at 37°C, as described by Meier et al. ^[36]. After at least five minutes this buffer is replaced by the same volume of buffer containing test compound and incubated for exactly 20 minutes. The reaction is stopped by rapid replacement of the buffer by ice cold 4%v/v perchloric acid (PCA) and incubation for at least 20 minutes at 0°C. The PCA-extract is neutralised and the [^3H]inosltol phosphates are separated by anion-exchange chromatography using Amprep™ columns containing 100 mg SAX Quaternary amine. The [^3H]inositol mono-phosphates are eluted and radioactivity in the fraction measured by liquid scintillation counting.
Before adding test substances to the cultures, the cells are depleted of glucose and oxygen by incubating them in a N2-atmosphere in glucose-free lithium-buffer for 10 minutes at 37°C. Control cells are incubated likewise only at normal atmospheric conditions and in a buffer containing glucose.

[6] = In vitro plasma and serum stability, rabbit; assay type: in vitro ADME; details: 37°C
Procedure: (§1) The stability of peptides is analysed in serum and plasma. The peptides are incubated at 37°C in plasma or serum and samples taken at approx. 9 regular intervals between t=0 and t=156 min are analysed by HPLC.
This is done by subsequent injections of the drug, plasma, and a co-injection with the drug and the plasma, followed by optimisation of the LC method parameters until a satisfactory separation is obtained. Three parallel experiments are performed for each plasma type.[…] at t = 0 and incubated at 37°C (drug-plasma mixture conc. 0.1 mg/ml). Samples of 100 ml of the drug-plasma mixture are removed at appropriate intervals and the degradation stopped by precipitation of the sample with 10 ml MeCN:TFA 50:50 v/v. A control plasma sample without the drug treated in the same manner is also taken. The plasma samples are centrifuged for 15 min. at 12,000 rpm (Eppendorf centrifuge) at ambient temperature. The resulting supernatant solution is transferred to 300 ml HP autosamler vials and analyzed by HPLC. The samples are analyzed in the following order: blank, the peptide at 0.1 mg/mL, the plasma without the peptide, the three parallel samples for t = 0, the three parallel samples for t = 5 min. the three parallel samples for t = 10 min. etc. […]

[7] = In vitro plasma and serum stability, human; assay type: in vitro ADME; details: for T1/2 PLASMA, HEPARIN HUMAN: 37°C
Procedure: as §1
This is done by subsequent injections of the drug, plasma, and a co-injection with the drug and the plasma, followed by optimisation of the LC method parameters until a satisfactory separation is obtained. Three parallel experiments are performed for each plasma type.100 ml of peptide is mixed with 900 ml plasma at t = 0 and incubated at 37°C (drug-plasma mixture conc. 0.1 mg/ml). Samples of 100 ml of the drug-plasma mixture are removed at appropriate intervals and the degradation stopped by precipitation of the sample with 10 ml MeCN:TFA 50:50 v/v. A control plasma sample without the drug treated in the same manner is also taken. The plasma samples are centrifuged for 15 min. at 12,000 rpm (Eppendorf centrifuge) at ambient temperature. The resulting supernatant solution is transferred to 300 ml HP autosamler vials and analyzed by HPLC. The samples are analyzed in the following order: blank, the peptide at 0.1 mg/mL, the plasma without the peptide, the three parallel samples for t = 0, the three parallel samples for t = 5 min. the three parallel samples for t = 10 min. etc. And finally the three parallel samples for t = 0 are repeated to make sure that there have been no degradation or other failure during the analyses. The sample concentrations (peak height in mAU) are plotted vs. time and fitted to a function describing a mono exponential decay (Excel). […] Table 7. Results of in vitro stability test in plasma and serum, T1/2 in min and hrs

H-GAG[Hyp]PY-NH2 [AAP10, reference compound]
IC50 (CHO cells): 130 nM
IC50 [1]: 1.2 nM
EC50 [2]: 11 nM
increase in APD90 dispersion during hypokalemic, acute myocardial ischemia [3]: ineffective
CaCl2 mice Score [4]: 3
In vivo activity ([4]; maximal effect, increase in time until 2nd degree AV-block relative to vehicle, i.v.): +++ (+++ refers to >60% increase in time until arrhythmia)
EC50 value relative to the EC50 value for Compound 2 ([5]; during metabolic stress induced by anoxia and glucose deprivation): 10 fold
EC50 value relative to the EC50 value for Compound 2 ([5]; during normoxia): 200 fold
EC50 ([5]; Glucose and oxygen deprivation): 100 nM
EC50 ([5]; Normal conditions): 2000 nM

cyclo(GAG[Hyp]PYN)
T1/2 PLASMA, HEPARIN RABBIT [6]: 30 hrs ± 8%
CaCl2 mice In vivo, % [4]: 57 +/- 8%
CaCl2 mice Score [4]: 2
T1/2 PLASMA, HEPARIN HUMAN [7]: 9 hrs ± 1%
Human plasma half life [7]: 13 h

cyclo(GAG[Hyp]PYQ)
T1/2 PLASMA, HEPARIN RABBIT [6]: 14 hrs ± 2%
CaCl2 mice In vivo, % [4]: 48 +/- 14%
CaCl2 mice Score [4]: 2
T1/2 PLASMA, HEPARIN HUMAN [7]: 15 hrs ± 1%
Human plasma half life [7]: 15 h
